Source: BindingDB's records for doi:10.1021/jm8005838 (Cephalon, 2008)

Target: Vascular endothelial growth factor receptor 2 (Homo sapiens, UniProt P35968)
Assay: VEGF-R2 Receptor-Linked Tyrosine Kinase Assay
Experimental: Compounds were evaluated for their ability to inhibit the kinase activity using an ELISA-based assay. The 96-well microtiter plate is coated with substrate solution. The reaction is initiated by adding recombinant human VEGF-R2 to reaction mixture containing inhibitor compound. After the incubation, the detection antibody, Eu-N1 antiphosphotyrosine (PT66) antibody, was added, and the fluorescence of the resulting solution was measured using the Victor Multilabel Counter.

Chain of Vascular endothelial growth factor receptor 2 (P35968 whole entry): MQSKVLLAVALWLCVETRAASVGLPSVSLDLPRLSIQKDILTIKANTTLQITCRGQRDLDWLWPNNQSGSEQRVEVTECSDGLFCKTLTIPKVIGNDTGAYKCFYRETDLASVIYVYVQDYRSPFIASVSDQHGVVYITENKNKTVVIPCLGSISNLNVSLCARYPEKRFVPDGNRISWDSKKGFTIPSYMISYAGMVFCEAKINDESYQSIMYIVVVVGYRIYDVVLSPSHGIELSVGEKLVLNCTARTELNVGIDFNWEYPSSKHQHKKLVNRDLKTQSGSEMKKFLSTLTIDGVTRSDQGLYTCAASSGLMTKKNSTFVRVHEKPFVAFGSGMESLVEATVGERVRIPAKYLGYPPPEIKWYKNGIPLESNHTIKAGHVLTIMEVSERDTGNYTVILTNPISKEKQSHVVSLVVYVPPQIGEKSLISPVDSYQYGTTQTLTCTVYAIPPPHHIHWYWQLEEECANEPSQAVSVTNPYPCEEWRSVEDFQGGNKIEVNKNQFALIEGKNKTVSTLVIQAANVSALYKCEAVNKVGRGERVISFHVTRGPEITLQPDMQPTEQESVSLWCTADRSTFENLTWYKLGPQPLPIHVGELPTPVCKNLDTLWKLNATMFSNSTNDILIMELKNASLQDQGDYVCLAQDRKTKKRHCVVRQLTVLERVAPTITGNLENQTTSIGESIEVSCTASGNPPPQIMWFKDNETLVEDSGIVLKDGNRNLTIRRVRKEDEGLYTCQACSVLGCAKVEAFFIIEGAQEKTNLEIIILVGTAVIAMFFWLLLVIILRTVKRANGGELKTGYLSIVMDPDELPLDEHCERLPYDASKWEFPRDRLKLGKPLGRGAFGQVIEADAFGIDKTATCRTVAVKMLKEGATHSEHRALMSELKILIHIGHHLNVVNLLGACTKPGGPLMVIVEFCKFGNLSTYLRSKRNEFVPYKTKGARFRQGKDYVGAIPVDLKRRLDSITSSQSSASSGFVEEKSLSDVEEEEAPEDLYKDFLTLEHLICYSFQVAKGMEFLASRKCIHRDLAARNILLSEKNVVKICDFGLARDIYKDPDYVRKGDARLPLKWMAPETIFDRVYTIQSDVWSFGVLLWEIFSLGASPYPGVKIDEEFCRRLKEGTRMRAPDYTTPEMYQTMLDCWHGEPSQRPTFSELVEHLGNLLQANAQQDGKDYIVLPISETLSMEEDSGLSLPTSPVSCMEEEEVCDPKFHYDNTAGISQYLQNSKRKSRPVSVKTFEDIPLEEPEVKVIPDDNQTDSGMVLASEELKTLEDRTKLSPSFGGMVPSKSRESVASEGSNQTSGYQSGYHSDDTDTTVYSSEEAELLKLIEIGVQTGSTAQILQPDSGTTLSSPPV

SMILES	IC50 [µM]
CC(C)Oc1ccc2c(c1)CCc1c-2c2c(c3c4ccccc4n(CCO)c13)CNC2=O [3-(2-hydroxyethyl)-20-(propan-2-yloxy)-3,13-diazahexacyclo[14.8.0.0^{2,10}.0^{4,9}.0^{11,15}.0^{17,22}]tetracosa-1(16),2(10),4(9),5,7,11(15),17(22),18,20-nonaen-14-one]	3.38
COc1ccc2c(c1)CCc1c-2c2c(c3c4ccccc4n(CCO)c13)CNC2=O [3-(2-hydroxyethyl)-20-methoxy-3,13-diazahexacyclo[14.8.0.0^{2,10}.0^{4,9}.0^{11,15}.0^{17,22}]tetracosa-1(16),2(10),4(9),5,7,11(15),17(22),18,20-nonaen-14-one]	4.72
